Assay results taken from PubChem BioAssay AID1963863 (Molecular Pharmacology Branch, DTP, NCI, 2024).

System: 931267-113-T-J1-PDC KRAS spheroid with HUVEC/MSC, viability
Assay: Anticancer human tumor 931267-113-T-J1-PDC patient-derived colon adenocarcinoma cell line growth inhibition [KRAS2]
Details: for IC50: curve of first compound; for viability, T/C: stronger effect = lower value
Outline: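 KRAS-mutant tumor cells were grown as spheroids with HUVEC endothelial cells and human MSCs as stroma. Targeted agents were tested alone and with KRAS pathway inhibitors. Doses started at or near clinical Cmax, or 10 microM, descending half-log.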

[1] = second compound 0.1 µM, first compound 0.0316 µM
[2] = second compound 0.1 µM, first compound 0.1 µM
[3] = second compound 0.1 µM, first compound 0.316 µM
[4] = second compound 0.1 µM, first compound 1 µM
[5] = second compound 0.1 µM, first compound 3.16 µM
[6] = second compound 0.316 µM, first compound 0.0316 µM
[7] = second compound 0.316 µM, first compound 0.1 µM
[8] = second compound 0.316 µM, first compound 0.316 µM
[9] = second compound 0.316 µM, first compound 1 µM
[10] = second compound 0.316 µM, first compound 3.16 µM
[11] = second compound 1 µM, first compound 0.0316 µM
[12] = second compound 1 µM, first compound 0.1 µM
[13] = second compound 1 µM, first compound 0.316 µM
[14] = second compound 1 µM, first compound 1 µM
[15] = second compound 1 µM, first compound 3.16 µM
[16] = second compound 3.16 µM, first compound 0.0316 µM
[17] = second compound 3.16 µM, first compound 0.1 µM
[18] = second compound 3.16 µM, first compound 0.316 µM
[19] = second compound 3.16 µM, first compound 1 µM
[20] = second compound 3.16 µM, first compound 3.16 µM
[21] = second compound 10 µM, first compound 0.0316 µM
[22] = second compound 10 µM, first compound 0.1 µM
[23] = second compound 10 µM, first compound 0.316 µM
[24] = second compound 10 µM, first compound 1 µM
[25] = second compound 10 µM, first compound 3.16 µM
[26] = second compound 0.1 µM, first compound 10 µM
[27] = second compound 0.316 µM, first compound 10 µM
[28] = second compound 1 µM, first compound 10 µM
[29] = second compound 3.16 µM, first compound 10 µM
[30] = second compound 10 µM, first compound 10 µM
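Further: compound exposure lasted 7 days before the readout.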
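Wherever viability, T/C is given: 100% = DMSO vehicle control viability.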

Row | Compound | IC50 (second compound 0.1 µM) [nM] | IC50 (second compound 0.316 µM) [nM] | IC50 (second compound 1 µM) [nM] | IC50 (second compound 3.16 µM) [nM] | IC50 (second compound 10 µM) [nM] | viability, T/C [1] [%] | viability, T/C [2] [%] | viability, T/C [3] [%] | viability, T/C [4] [%] | viability, T/C [5] [%] | viability, T/C [6] [%] | viability, T/C [7] [%] | viability, T/C [8] [%] | viability, T/C [9] [%] | viability, T/C [10] [%] | viability, T/C [11] [%] | viability, T/C [12] [%] | viability, T/C [13] [%] | viability, T/C [14] [%] | viability, T/C [15] [%] | further results
1 | CC1COCCN1c1cc(-c2ccnn2C)c2ccnc(-c3ccn[nH]3)c2n1 (stereo not given) + COc1cc2nc(C)nc(NC(C)c3cc(N)cc(C(F)(F)F)c3)c2cc1OC1CCOC1 | 45.2 | 43 | 27.9 | 33.3 | < 10 | 61.2 | 25 | 19.5 | 15.1 | 15.2 | 59.3 | 24.5 | 17.8 | 15.4 | 15.3 | 46.6 | 24.1 | 13.6 | 17.7 | 15.9 | viability, T/C (second compound 0.1 µM, first compound 0.01 µM): 75.4%; viability, T/C (second compound 0.316 µM, first compound 0.01 µM): 83.4%; viability, T/C (second compound 1 µM, first compound 0.01 µM): 76.3%; viability, T/C (second compound 3.16 µM, first compound 0.01 µM): 70.4%; viability, T/C [16]: 51.6%; viability, T/C [17]: 16.2%; viability, T/C [18]: 11.2%; viability, T/C [19]: 15%; viability, T/C [20]: 14%; viability, T/C (second compound 10 µM, first compound 0.01 µM): 1.71%; viability, T/C [21]: 2.62%; viability, T/C [22]: 3.95%; viability, T/C [23]: 1.66%; viability, T/C [24]: 2.29%; viability, T/C [25]: 1.1%
2 | CC1OCC2(CCN(c3cnc(Sc4ccnc(N)c4Cl)c(N)n3)CC2)C1N (stereo not given) + COc1cc2nc(C)nc(NC(C)c3cc(N)cc(C(F)(F)F)c3)c2cc1OC1CCOC1 | > 10000 | > 10000 | > 10000 | > 10000 | < 31.6 | 79.3 | 59 | 75.5 | 77.5 | 68.3 | 62.2 | 56.1 | 65 | 68.1 | 70.6 | 70.6 | 72.8 | 56 | 63.1 | 79 | viability, T/C [26]: 90.7%; viability, T/C [27]: 77.9%; viability, T/C [28]: 64.9%; viability, T/C [16]: 70.7%; viability, T/C [17]: 49.8%; viability, T/C [18]: 51.8%; viability, T/C [19]: 54.9%; viability, T/C [20]: 61.4%; viability, T/C [29]: 67.6%; viability, T/C [21]: 3.02%; viability, T/C [22]: 2.08%; viability, T/C [23]: 4.77%; viability, T/C [24]: 2.12%; viability, T/C [25]: 2.08%; viability, T/C [30]: 0.42%
3 | Cn1nccc1Nc1nccc(-c2cc3c(s2)C(C)(C)N(CCN2CCOCC2)C3=O)n1 + COc1cc2nc(C)nc(NC(C)c3cc(N)cc(C(F)(F)F)c3)c2cc1OC1CCOC1 | 451 | 517 | 464 | 229 | < 31.6 | 80.2 | 95.3 | 54 | 29.5 | 9.12 | 84.6 | 88.2 | 62.7 | 31.2 | 4.2 | 79.8 | 73.6 | 62.6 | 26.2 | 8.33 | viability, T/C [26]: 3.49%; viability, T/C [27]: 2.13%; viability, T/C [28]: 2.61%; viability, T/C [16]: 71.3%; viability, T/C [17]: 68.4%; viability, T/C [18]: 42.4%; viability, T/C [19]: 15.5%; viability, T/C [20]: 3.42%; viability, T/C [29]: 2.28%; viability, T/C [21]: 3.64%; viability, T/C [22]: 2.94%; viability, T/C [23]: 2.42%; viability, T/C [24]: 1.97%; viability, T/C [25]: 0.91%; viability, T/C [30]: 0.28%
